The results in this text go back to ChEMBL document CHEMBL1201862, “PubChem BioAssay data set” (2004).

Among the test systems are 786-0; COLO 205; DLD-1; HL-60; HT-29; IGROV-1; K562; M19-MEL; MOLT-4; SF-268; SF-539; SK-MEL-28; SNB-78; UACC-257; UO-31; SNB-75; CAKI-1; Hs-578T; NCI/ADR-RES; PC-3.
What all share (test): NCI tumour cell line growth inhibition, 48 h

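Each compound was tested at five concentrations against cells in 96-well plates for 48 hours. GI50 marks 50% less growth.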 Calls of active or inactive are those of the source. No stated cut-off is given here; in the data, active = GI50 up to about 1.1 µM and inactive = higher.

As for `O=C(N/N=C/c1ccccc1O)c1cccc([N+](=O)[O-])c1`, the GI50 with 786-0 is 6.47 µM (inactive); in the test on COLO 205 it was 20.9 µM (inactive); in the test with DLD-1, 45.7 µM (inactive); in the test on HL-60, 3.01 µM (inactive); in the test on HT-29, 5.93 µM (inactive); with IGROV-1, 13.7 µM (inactive). For the same molecule, the GI50 in the test with K562 is 22.4 µM (inactive); in the test on M19-MEL, 12.9 µM (inactive); in the test with MOLT-4, 3.1 µM (inactive); in the test with SF-268, 15.7 µM (inactive); with SF-539 it was 13.8 µM (inactive); with SK-MEL-28 it was 25 µM (inactive). Besides, the GI50 in the test on SNB-78 is > 86.3 µM (inactive); in the test on UACC-257, 9.48 µM (inactive); in the test on UO-31, 7.82 µM (inactive).
Regarding `O=C(CC1SC(Nc2ccccc2Cl)=NC1=O)Nc1ccc(Cl)cc1Cl` (centres undefined), the GI50 with 786-0, with COLO 205, in the test with DLD-1, in the test on HL-60, in the test with HT-29 and with IGROV-1 was > 100 µM (inactive) each time. Besides, the GI50 in the test with M19-MEL, in the test on MOLT-4, in the test with SF-268, in the test with SK-MEL-28, in the test on SNB-75 and in the test with SNB-78 was > 100 µM (inactive) each time. Besides, the GI50 with UACC-257 and with UO-31 was > 100 µM (inactive) in each case.
On to `C1=CC2CCC1CN2CCC1CNc2ccccc21` (centres undefined), for which the GI50 with 786-0 is > 100 µM (inactive); in the test with COLO 205, > 10 µM (inactive); in the test with DLD-1, > 100 µM (inactive); in the test with HL-60, > 100 µM (inactive); with HT-29 it was > 100 µM (inactive); in the test on IGROV-1, > 100 µM (inactive). Moreover, the GI50 with K562, with M19-MEL, with MOLT-4, with SF-268, in the test with SF-539 and in the test on SK-MEL-28 was > 100 µM (inactive) throughout. Besides, the GI50 in the test on SNB-75 was > 100 µM (inactive); in the test on SNB-78, > 100 µM (inactive); in the test with UACC-257, > 100 µM (inactive); in the test with UO-31 it was 64.9 µM (inactive).
Consider `Nc1cc2c3c(cccc3c1)C(=O)N(CCN1CCN(CCN3C(=O)c4cccc5cc(N)cc(c45)C3=O)CC1)C2=O`, for which the GI50 with 786-0 was > 100 µM (inactive); in the test with CAKI-1, > 100 µM (inactive); in the test on COLO 205, > 100 µM (inactive); with HL-60, > 100 µM (inactive); with HT-29, 32 µM (inactive); in the test on IGROV-1 it was > 100 µM (inactive). Moreover, the GI50 with K562 was > 100 µM (inactive); with M19-MEL, > 100 µM (inactive); with MOLT-4 it was 25.3 µM (inactive); in the test on SF-268, 91.2 µM (inactive); in the test on SF-539, > 100 µM (inactive); in the test on SK-MEL-28, > 100 µM (inactive). Also, the GI50 in the test on SNB-75 is > 100 µM (inactive); with UACC-257 it was > 100 µM (inactive); in the test with UO-31, 37.9 µM (inactive).
As for `Cc1cn(CCCCCOC(=O)NC(CCCNC(N)=O)C(=O)O)c(=O)[nH]c1=O` (centres undefined), the GI50 with 786-0, in the test on CAKI-1, in the test with COLO 205, in the test on HL-60, with HT-29 and in the test with Hs-578T was > 100 µM (inactive) throughout. Further, the GI50 with IGROV-1 was 65.3 µM (inactive); with K562 it was > 100 µM (inactive); with MOLT-4, > 100 µM (inactive); with NCI/ADR-RES, > 100 µM (inactive); in the test on PC-3 it was > 100 µM (inactive); in the test with SF-268 it was > 100 µM (inactive). In addition, the GI50 in the test on SF-539, in the test with SK-MEL-28, in the test with SNB-75, in the test with UACC-257 and in the test with UO-31 was > 100 µM (inactive) each time.
Take `COc1cc(CC2c3cc(OC)c(OC)cc3CCN2C)c(Oc2cc3c(cc2OC)-c2c(O)c(OC)cc4c2C(C3)N(C)CC4)cc1OC` (centres undefined): the GI50 in the test on 786-0 is 23.1 µM (inactive); in the test with CAKI-1, 23.7 µM (inactive); in the test on COLO 205, 11.4 µM (inactive); in the test with HL-60, 4.01 µM (inactive); with HT-29 it was 6.82 µM (inactive); with Hs-578T, 18.2 µM (inactive). In addition, the GI50 was 20 µM (inactive) in the test with IGROV-1; 10.8 µM (inactive) with K562; 19.4 µM (inactive) with MOLT-4; 20.6 µM (inactive) in the test on NCI/ADR-RES; 23.3 µM (inactive) in the test on PC-3; 17.8 µM (inactive) in the test with SF-268. Further, the GI50 with SF-539 is 14.1 µM (inactive); in the test on SK-MEL-28, 20.3 µM (inactive); in the test with SNB-75, 14.9 µM (inactive); in the test with UACC-257, 14.5 µM (inactive); in the test with UO-31, 18.5 µM (inactive).
As for `COc1cc2ccc3c4cc(OC)c(OC(C)C)cc4c[n+](C)c3c2cc1OC`, the GI50 was 99.3 µM (inactive) in the test on 786-0; > 100 µM (inactive) with CAKI-1; 14.5 µM (inactive) in the test with COLO 205; > 100 µM (inactive) in the test with DLD-1; 35.1 µM (inactive) in the test on HL-60; > 100 µM (inactive) in the test on HT-29. Moreover, the GI50 was 74.5 µM (inactive) with IGROV-1; 22.7 µM (inactive) with K562; 29 µM (inactive) in the test on M19-MEL; > 100 µM (inactive) with MOLT-4; 32.7 µM (inactive) with SF-268; 40.4 µM (inactive) in the test with SF-539. The GI50 with SK-MEL-28 was 33.6 µM (inactive); in the test on SNB-75, 34 µM (inactive); in the test on UACC-257, 28.2 µM (inactive); in the test on UO-31, > 100 µM (inactive).
`O=C1CCCC2(c3ccccc3)Nc3ccccc3N12` (centres undefined): the GI50 is > 100 µM (inactive) in the test on 786-0; > 100 µM (inactive) with CAKI-1; > 100 µM (inactive) in the test on COLO 205; 55.6 µM (inactive) in the test with HL-60; > 100 µM (inactive) in the test on HT-29; > 100 µM (inactive) in the test on Hs-578T. Also, the GI50 in the test on IGROV-1 was > 100 µM (inactive); in the test with K562, 82.6 µM (inactive); with MOLT-4, > 100 µM (inactive); in the test on NCI/ADR-RES it was > 100 µM (inactive); in the test on PC-3 it was > 100 µM (inactive); in the test with SF-268, > 100 µM (inactive). In addition, the GI50 in the test on SF-539, with SK-MEL-28, in the test on SNB-75, in the test on UACC-257 and in the test with UO-31 was > 100 µM (inactive) each time.
Regarding `COc1cccc([C@@]2(O)c3c(ccc(O)c3OC)[C@H]2OC)c1OC`, the GI50 is 14.4 µM (inactive) in the test with 786-0; 22.6 µM (inactive) with CAKI-1; 35.7 µM (inactive) with DLD-1; 19.3 µM (inactive) in the test on HL-60; 28.1 µM (inactive) in the test on HT-29; 40.6 µM (inactive) in the test on IGROV-1. The GI50 with K562 was 44.5 µM (inactive); in the test with MOLT-4, 45.5 µM (inactive); with SF-268, 33.8 µM (inactive); in the test on SK-MEL-28, 38.1 µM (inactive); with SNB-75, 47.6 µM (inactive); in the test with SNB-78, 49.7 µM (inactive). In addition, the GI50 in the test with UACC-257 is 98.2 µM (inactive); in the test with UO-31 it was 36.4 µM (inactive).
In the case of `COc1ccnc2c1C(=O)c1nc3ccccc3c3ccnc-2c13`, the GI50 was 0.221 µM (active) in the test on 786-0; 0.181 µM (active) in the test with CAKI-1; 0.0796 µM (active) in the test with COLO 205; 0.06 µM (active) in the test with HL-60; 0.0571 µM (active) with HT-29; 1.55 µM (inactive) in the test on Hs-578T. In addition, the GI50 was 0.177 µM (active) in the test with IGROV-1; 0.163 µM (active) with K562; 1.42 µM (inactive) in the test with MOLT-4; 0.0713 µM (active) with NCI/ADR-RES; 0.141 µM (active) in the test with PC-3; 0.137 µM (active) in the test on SF-268. Moreover, the GI50 in the test with SF-539 was 0.373 µM (active); in the test on SK-MEL-28, 0.305 µM (active); in the test on SNB-75 it was 0.04 µM (active); in the test on UACC-257, 0.198 µM (active); with UO-31, 0.161 µM (active).
In the case of `CN1N=C(Nc2ccccc2)Sc2c1cnn(-c1ccccc1)c2=O`, the GI50 with 786-0 is > 100 µM (inactive); with COLO 205, > 100 µM (inactive); in the test with DLD-1, > 100 µM (inactive); in the test with HL-60, 85.7 µM (inactive); in the test on HT-29 it was > 100 µM (inactive); in the test on IGROV-1 it was > 100 µM (inactive). The GI50 is 30.6 µM (inactive) with K562; > 100 µM (inactive) in the test with M19-MEL; > 100 µM (inactive) in the test on MOLT-4; > 100 µM (inactive) in the test with SF-539; > 100 µM (inactive) in the test with UACC-257; 83.2 µM (inactive) in the test with UO-31.
As for `CCOC(=O)/C=C/CCC(C)(C)COC(C)=O`, the GI50 in the test on 786-0, with CAKI-1, with COLO 205, with HL-60, with HT-29 and in the test on Hs-578T was > 10 µM (inactive) in each case. Besides, the GI50 in the test on IGROV-1, with K562, with MOLT-4, with NCI/ADR-RES, in the test with PC-3 and in the test on SF-268 was > 10 µM (inactive) throughout. The GI50 with SF-539, in the test on SK-MEL-28, in the test on SNB-75, with UACC-257 and with UO-31 was > 10 µM (inactive) each time.
With `CSc1nnc(SCc2nn3c(=O)cc(C)nc3s2)s1`, the GI50 in the test on 786-0, in the test on CAKI-1, in the test with COLO 205, in the test with HL-60, in the test with HT-29 and with Hs-578T was > 100 µM (inactive) in each case. Besides, the GI50 in the test on IGROV-1, in the test on K562, in the test on MOLT-4, with NCI/ADR-RES, in the test on PC-3 and with SF-268 was > 100 µM (inactive) throughout. Also, the GI50 in the test with SF-539, in the test with SK-MEL-28, in the test on SNB-75, in the test with UACC-257 and with UO-31 was > 100 µM (inactive) each time.
